Laboratory results as given in patent US20230416330A1, “Optimized GIP Peptide Analogues” (Antag Therapeutics ApS, priority 2019, published 2023).
Starred links: 1 amine or outer side, 2 acyl side, 3 side chain; linkers in the order of their positions; H or OH if unused. Non-standard residues stand in square brackets, D forms with d. Residues, ends and D or L forms follow the SMILES beside them. Groups on a side chain read outwards from the residue. *: point of attachment. C18 diacid = O=C(O)CCCCCCCCCCCCCCCCC(=O)*; C16 diacid = O=C(O)CCCCCCCCCCCCCCC(=O)*; γGlu = O=C(O)[C@H](CCC(=O)[*:2])N[*:1]; Nle = CCCC[C@H](N)C(=O)O; AEEA = NCCOCCOCC(=O)O; Aib = CC(C)(N)C(=O)O

Key:
human GIP receptor = biological target: T1, human GIP receptor (Homo sapiens, UniProt P48546); experiment: cAMP assay Alternative 1 (CisBio assay), GIPR antagonism; type: cell-based; details: for cAMP antagonism % inhib: Table 2B, % inhibition of Emax
T1 construct: host or cells: HEK-293 cells, transient transfection (Lipofectamine 2000), cDNA in pCMV-Script vector
T1 sequence (P48546 22-466): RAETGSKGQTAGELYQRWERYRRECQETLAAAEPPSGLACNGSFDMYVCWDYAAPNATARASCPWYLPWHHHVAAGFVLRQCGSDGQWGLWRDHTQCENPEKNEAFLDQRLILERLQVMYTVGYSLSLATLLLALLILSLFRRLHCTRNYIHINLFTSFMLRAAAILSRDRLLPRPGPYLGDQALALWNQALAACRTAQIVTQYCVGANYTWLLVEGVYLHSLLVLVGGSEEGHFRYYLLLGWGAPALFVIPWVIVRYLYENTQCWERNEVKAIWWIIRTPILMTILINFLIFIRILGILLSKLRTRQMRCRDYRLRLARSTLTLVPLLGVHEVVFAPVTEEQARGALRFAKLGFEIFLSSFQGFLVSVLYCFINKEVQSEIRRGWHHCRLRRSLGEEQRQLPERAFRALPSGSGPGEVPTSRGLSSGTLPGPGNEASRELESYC
Protocol: HEK293 cells were cultured in 10% CO2 and 37° C. in Dulbecco's modified Eagle's medium supplemented with 10% fetal bovine serum, 2 mM glutamine, 180 units/ml penicillin, and 45 µg/ml streptomycin. Transient transfection with hGIPR for the CisBio assay from Table 2C was performed by using Lipofectamine 2000.
The in vitro functional activity of compounds towards human GIP receptor can also be determined in HEK-293 cells transiently expressing the receptor. On the day of the assay, cells were resuspended in HBSS buffer (Gibco, 14025-50) supplemented with […] (Gibco, 15630-106), 0.1% Pluronic F-68 (Gibco, 24040-032) and 0.1% casein (Sigma, C4765), and plated in 384-well plates at a density of 5000 cells/well. The GIP peptide analogues of the present disclosure were diluted in HBSS buffer supplemented with 20 mM HEPES, 0.1% pluronic, 0.1% casein and 500 uM IBMX. […] The resulting decrease in intracellular cAMP was quantitatively determined using the CisBio cAMP Dynamic 2 HTRF Assay Kit. The assay is based on a competition between native cAMP produced by cells and cAMP labeled with the dye d2 for binding to a cryptate labeled antibody. The specific signal (i.e. energy transfer signal) is inversely proportional to the concentration of cAMP in the sample.
The cAMP-d2 conjugate and the antibody anti-cAMP-Cryptate, both diluted in lysis buffer provided in the kit, were added to the cells according to the manufacturer's protocol. The resulting competitive assay was incubated for 60 minutes at room temperature, and the signal was detected by using a PerkinElmer Envision® instrument with excitation at 320 nm and emission at 665 nm and 620 nm. The HTRF ratio (emission at 665 nm/620 nm*10,000) is inversely proportional to the amount of cAMP present and is converted to nM cAMP per well using a cAMP standard curve. The dose-response curves were fitted using the non-linear regression analysis (four-logistic parameter equation) in GraphPad Prism, whereby pIC50 values were estimated. To test for agonistic properties at the GIP receptor, compounds were diluted and added to cells as described above and incubated for 30 min at 37° C. The resulting increase in intracellular cAMP was determined using the CisBio cAMP Dynamic 2 HTRF Assay Kit as described above.
The dose-response curves were fitted using the non-linear regression analysis (four-logistic parameter equation) in GraphPad Prism, whereby pIC50 values were estimated.

[1] = Physical stability: fibril formation in Thioflavin T (ThT) assay with agitation; type: physicochemical; details: 1 mg/ml, 25° C., agitation
Outline: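 Read-out is continuous ThT fluorescence at 486 nm, with lag time taken where signal reaches 10% between pre- and post-transition baselines. Filtered samples (1, 5, 7.5 or 15 mg/ml; pH 7.4 phosphate buffer or NaOH-adjusted water) were stressed at 25° C. by orbital rotation at 300 rpm with one silica bead per well.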

[2] = Solubility by visual inspection of peptide solutions; type: physicochemical; details: 1 mg/ml
Outline: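 Solubility scored by eye: clear, colorless appearance after gentle mixing. Samples prepared at 1, 5, 7.5 or 15 mg/ml in either pH 7.4 water (NaOH-adjusted) or 50 mM sodium phosphate buffer, pH 7.4.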

Structure (SMILES)	cAMP antagonism % inhib (human GIP receptor) [%]	Avr lag time (h) ([1]; TFA, Phosphate (7.4))	Visual appearance ([2]; TFA, Phosphate (7.4))	Avr lag time (h) ([1]; Na, MilliQ (7.7))	Visual appearance ([2]; Na, MilliQ (7.7))	IC50 (human GIP receptor) [nM]
CCCC[C@H](NC(=O)[C@H](C)NC(=O)[C@@H](NC(=O)[C@H](CO)NC(=O)[C@H](Cc1ccc(O)cc1)NC(=O)[C@H](CCC(=O)O)NC(=O)[C@H](CO)NC(=O)[C@@H](NC(=O)[C@H](Cc1ccccc1)NC(=O)[C@@H](NC(=O)CNC(=O)[C@@H](N)CCC(=O)O)[C@@H](C)O)[C@@H](C)CC)[C@@H](C)CC)C(=O)N[C@@H](CCC(=O)O)C(=O)N[C@@H](CCCCN)C(=O)N[C@H](C(=O)N[C@@H](CCCCNC(=O)COCCOCCNC(=O)COCCOCCNC(=O)CC[C@H](NC(=O)CCCCCCCCCCCCCCCCC(=O)O)C(=O)O)C(=O)N[C@@H](CCC(N)=O)C(=O)N[C@@H](CCC(N)=O)C(=O)N[C@@H](CCC(=O)O)C(=O)N[C@@H](Cc1ccccc1)C(=O)N[C@H](C(=O)N[C@@H](CCC(=O)O)C(=O)N[C@@H](Cc1c[nH]c2ccccc12)C(=O)N[C@@H](CC(C)C)C(=O)N[C@@H](CC(C)C)C(=O)N[C@@H](C)C(=O)N[C@@H](CCC(N)=O)C(=O)N[C@@H](CCCCN)C(=O)N1CCC[C@H]1C(=O)N[C@@H](CO)C(=O)N[C@@H](CO)C(=O)NCC(=O)N[C@@H](C)C(=O)N1CCC[C@H]1C(=O)N1CCC[C@H]1C(=O)N1CCC[C@H]1C(=O)N[C@@H](CO)C(=O)O)C(C)C)[C@@H](C)CC [AT694] (H-EGTFISEYSIA[Nle]EKIK([AEEA-AEEA-γGlu-C18 diacid])QQEFVEWLLAQKPSSGAPPPS-OH; N-terminus assumed)	88	fnd (Fnd = fibrils not detected within experiment time (96 hours) with agitation.)	Clear			
CC[C@H](C)[C@H](NC(=O)[C@H](CCCCN)NC(=O)[C@H](CCC(=O)O)NC(=O)[C@H](CCSC)NC(=O)C(C)(C)NC(=O)[C@@H](NC(=O)[C@H](CO)NC(=O)[C@H](Cc1ccc(O)cc1)NC(=O)[C@H](CCC(=O)O)NC(=O)[C@H](CO)NC(=O)[C@@H](NC(=O)[C@H](Cc1ccccc1)NC(=O)[C@@H](NC(=O)CNC(=O)[C@@H](N)CCC(=O)O)[C@@H](C)O)[C@@H](C)CC)[C@@H](C)CC)C(=O)N[C@@H](CCCCNC(=O)CCCCCCCCCCCCCCC(=O)O)C(=O)N[C@@H](CCC(N)=O)C(=O)N[C@@H](CCC(N)=O)C(=O)N[C@@H](CC(=O)O)C(=O)N[C@@H](Cc1ccccc1)C(=O)N[C@H](C(=O)N[C@@H](CCC(=O)O)C(=O)N[C@@H](Cc1c[nH]c2ccccc12)C(=O)N[C@@H](CC(C)C)C(=O)N[C@@H](CC(C)C)C(=O)N[C@@H](C)C(=O)N[C@@H](CCC(N)=O)C(=O)N[C@@H](CCCCN)C(=O)N1CCC[C@H]1C(=O)N[C@@H](CO)C(=O)N[C@@H](CO)C(=O)NCC(=O)N[C@@H](C)C(=O)N1CCC[C@H]1C(=O)N1CCC[C@H]1C(=O)N1CCC[C@H]1C(=O)N[C@@H](CO)C(=O)O)C(C)C [AT616] (H-EGTFISEYSI[Aib]MEKIK(C16 diacid)QQDFVEWLLAQKPSSGAPPPS-OH; N-terminus assumed)	100			fnd (Fnd = fibrils not detected within experiment time (96 hours) with agitation.)	Clear	
CC[C@H](C)[C@H](NC(=O)[C@H](CO)NC(=O)[C@H](Cc1ccc(O)cc1)NC(=O)[C@H](CCC(=O)O)NC(=O)[C@H](CO)NC(=O)[C@@H](NC(=O)[C@H](Cc1ccccc1)NC(=O)[C@@H](NC(=O)CNC(=O)[C@@H](N)CCC(=O)O)[C@@H](C)O)[C@@H](C)CC)C(=O)N[C@@H](C)C(=O)N[C@@H](CC(C)C)C(=O)N[C@@H](CCC(=O)O)C(=O)N[C@@H](CCCCN)C(=O)N[C@H](C(=O)N[C@@H](CCCCNC(=O)COCCOCCNC(=O)COCCOCCNC(=O)CC[C@H](NC(=O)CCCCCCCCCCCCCCCCC(=O)O)C(=O)O)C(=O)N[C@@H](CCC(N)=O)C(=O)N[C@@H](CCC(N)=O)C(=O)N[C@@H](CCC(=O)O)C(=O)N[C@@H](Cc1ccccc1)C(=O)N[C@H](C(=O)N[C@@H](CCC(=O)O)C(=O)N[C@@H](Cc1c[nH]c2ccccc12)C(=O)N[C@@H](CC(C)C)C(=O)N[C@@H](CC(C)C)C(=O)N[C@@H](C)C(=O)N[C@@H](CCC(N)=O)C(=O)N[C@@H](CCCCN)C(=O)N1CCC[C@H]1C(=O)N[C@@H](CO)C(=O)N[C@@H](CO)C(=O)NCC(=O)N[C@@H](C)C(=O)N1CCC[C@H]1C(=O)N1CCC[C@H]1C(=O)N1CCC[C@H]1C(=O)N[C@@H](CO)C(=O)O)C(C)C)[C@@H](C)CC [AT693] (H-EGTFISEYSIALEKIK([AEEA-AEEA-γGlu-C18 diacid])QQEFVEWLLAQKPSSGAPPPS-OH; N-terminus assumed)	96	fnd (Fnd = fibrils not detected within experiment time (96 hours) with agitation.)	Clear			
CC[C@H](C)[C@H](NC(=O)[C@H](CO)NC(=O)[C@H](Cc1ccc(O)cc1)NC(=O)[C@H](CC(=O)O)NC(=O)[C@H](CO)NC(=O)[C@@H](NC(=O)[C@H](Cc1ccccc1)NC(=O)[C@@H](NC(=O)CNC(=O)[C@@H](N)CCC(=O)O)[C@@H](C)O)[C@@H](C)CC)C(=O)N[C@@H](C)C(=O)N[C@@H](CC(C)C)C(=O)N[C@@H](CC(=O)O)C(=O)N[C@@H](CCCCN)C(=O)N[C@H](C(=O)N[C@@H](CCCCNC(=O)COCCOCCNC(=O)COCCOCCNC(=O)CC[C@H](NC(=O)CCCCCCCCCCCCCCCCC(=O)O)C(=O)O)C(=O)N[C@@H](CCC(N)=O)C(=O)N[C@@H](CCC(N)=O)C(=O)N[C@@H](CC(=O)O)C(=O)N[C@@H](Cc1ccccc1)C(=O)N[C@H](C(=O)N[C@@H](CCC(=O)O)C(=O)N[C@@H](Cc1c[nH]c2ccccc12)C(=O)N[C@@H](CC(C)C)C(=O)N[C@@H](CC(C)C)C(=O)N[C@@H](C)C(=O)N[C@@H](CCC(N)=O)C(=O)N[C@@H](CCCCN)C(=O)N1CCC[C@H]1C(=O)N[C@@H](CO)C(=O)N[C@@H](CO)C(=O)NCC(=O)N[C@@H](C)C(=O)N1CCC[C@H]1C(=O)N1CCC[C@H]1C(=O)N1CCC[C@H]1C(=O)N[C@@H](CO)C(=O)O)C(C)C)[C@@H](C)CC [AT682] (H-EGTFISDYSIALDKIK([AEEA-AEEA-γGlu-C18 diacid])QQDFVEWLLAQKPSSGAPPPS-OH; N-terminus assumed)	89					
CC[C@H](C)[C@H](NC(=O)[C@H](CO)NC(=O)[C@H](Cc1ccc(O)cc1)NC(=O)[C@H](CC(=O)O)NC(=O)[C@H](CO)NC(=O)[C@@H](NC(=O)[C@H](Cc1ccccc1)NC(=O)[C@@H](NC(=O)CNC(=O)[C@@H](N)CCC(=O)O)[C@@H](C)O)[C@@H](C)CC)C(=O)N[C@@H](C)C(=O)N[C@@H](CCSC)C(=O)N[C@@H](CC(=O)O)C(=O)N[C@@H](CCCCN)C(=O)N[C@H](C(=O)N[C@@H](CCCCNC(=O)CCCCCCCCCCCCCCC(=O)O)C(=O)N[C@@H](CCC(N)=O)C(=O)N[C@@H](CCC(N)=O)C(=O)N[C@@H](CC(=O)O)C(=O)N[C@@H](Cc1ccccc1)C(=O)N[C@H](C(=O)N[C@@H](CCC(=O)O)C(=O)N[C@@H](Cc1c[nH]c2ccccc12)C(=O)N[C@@H](CC(C)C)C(=O)N[C@@H](CC(C)C)C(=O)N[C@@H](C)C(=O)N[C@@H](CCC(N)=O)C(=O)N[C@@H](CCCCN)C(=O)N1CCC[C@H]1C(=O)N[C@@H](CO)C(=O)N[C@@H](CO)C(=O)NCC(=O)N[C@@H](C)C(=O)N1CCC[C@H]1C(=O)N1CCC[C@H]1C(=O)N1CCC[C@H]1C(=O)N[C@@H](CO)C(=O)O)C(C)C)[C@@H](C)CC [AT617] (H-EGTFISDYSIAMDKIK(C16 diacid)QQDFVEWLLAQKPSSGAPPPS-OH; N-terminus assumed)	91					0.794
